Data from patent publication US7488740B2, “Substituted quinolin-4-ylamine analogues” (Neurogen Corporation, priority 2003, dated 2009).
One block for each compound: values may come before it.

Target: T1, human capsaicin receptor (Homo sapiens, UniProt Q8NER1)
T1 construct: A cDNA encoding full length human capsaicin receptor recited in U.S. Pat. No. 6,482,611 was subcloned in the plasmid pBK-CMV; expressed in transfected cells
Assay: Calcium mobilization assay (Example 6)
Format: cell-based
Settings: concentration required to provide a 50% decrease in the fluorescence response of cells exposed to one IC50 of capsaicin
Method in brief: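 HEK293 clonal lines stably expressing full-length human capsaicin receptor, Fluo-3 AM loaded in KRH buffer pH 7.4. Compounds (final 1-5 μM) preincubated 0.5-6 h at room temperature in the dark, then capsaicin added at its predetermined IC50 concentration. FLIPR calcium signal at 30-60 s; IC50 = antagonist concentration giving 50% decrease.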

T1 sequence (Q8NER1 whole entry): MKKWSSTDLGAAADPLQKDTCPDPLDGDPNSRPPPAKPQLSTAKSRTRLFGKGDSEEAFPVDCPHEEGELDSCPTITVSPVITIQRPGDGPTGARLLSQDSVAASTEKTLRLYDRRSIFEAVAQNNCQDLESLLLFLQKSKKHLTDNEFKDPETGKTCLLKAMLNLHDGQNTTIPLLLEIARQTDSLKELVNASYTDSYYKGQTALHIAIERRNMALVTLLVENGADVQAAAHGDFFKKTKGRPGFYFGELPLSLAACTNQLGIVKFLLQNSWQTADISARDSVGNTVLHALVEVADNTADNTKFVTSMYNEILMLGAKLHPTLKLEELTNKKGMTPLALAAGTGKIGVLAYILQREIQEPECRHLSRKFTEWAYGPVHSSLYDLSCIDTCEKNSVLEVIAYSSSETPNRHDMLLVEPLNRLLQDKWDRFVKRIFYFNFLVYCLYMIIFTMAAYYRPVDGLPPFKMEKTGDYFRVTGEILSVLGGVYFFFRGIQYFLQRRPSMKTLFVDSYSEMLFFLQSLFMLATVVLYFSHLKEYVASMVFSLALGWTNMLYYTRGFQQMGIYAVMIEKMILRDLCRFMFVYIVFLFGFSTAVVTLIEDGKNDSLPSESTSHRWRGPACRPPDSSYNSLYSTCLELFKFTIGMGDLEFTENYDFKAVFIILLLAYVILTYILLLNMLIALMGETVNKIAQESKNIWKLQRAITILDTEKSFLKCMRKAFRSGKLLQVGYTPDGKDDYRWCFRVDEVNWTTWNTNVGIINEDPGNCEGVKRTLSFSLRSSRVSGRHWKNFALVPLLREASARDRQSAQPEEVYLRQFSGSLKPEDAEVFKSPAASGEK

IC50: ≤ 1 µM
SMILES: Cc1ccc(Nc2cc(C(C)C)nc3nc(-c4ncccc4C(F)(F)F)ccc23)nc1 [Compound 103, 2-isopropyl-N-(5-methylpyridin-2-yl)-7-[3-(trifluoromethyl)pyridin-2-yl]-1,8-naphthyridin-4-amine]

IC50: ≤ 1 µM
SMILES: CC(C)c1cc(Nc2ccc(C#N)cn2)c2ccc(-c3ncccc3C(F)(F)F)nc2n1 [Compound 104, 6-({2-isopropyl-7-[3-(trifluoromethyl)pyridin-2-yl]-1,8-naphthyridin-4-yl}amino)nicotinonitrile]

IC50: ≤ 1 µM
SMILES: CC(C)c1cc(Nc2ccc(Cl)cn2)c2ccc(-c3ncccc3C(F)(F)F)nc2n1 [Compound 105, N-(5-chloropyridin-2-yl)-2-isopropyl-7-[3-(trifluoromethyl)pyridin-2-yl]-1,8-naphthyridin-4-amine]

IC50: ≤ 1 µM
SMILES: FC(F)(F)c1ccc(Nc2ccnc3cc(-c4ncccc4C(F)(F)F)cnc23)nc1 [Compound 108, 7-[3-(trifluoromethyl)pyridin-2-yl]-N-[5-(trifluoromethyl)pyridin-2-yl]-1,5-naphthyridin-4-amine]

IC50: ≤ 1 µM
SMILES: CCc1cc(Nc2ccc(C(F)(F)F)cn2)c2ccc(-c3ncccc3C(F)(F)F)nc2n1 [Compound 110, 2-ethyl-7-[3-(trifluoromethyl)pyridin-2-yl]-N-[5-(trifluoromethyl)pyridin-2-yl]-1,8-naphthyridin-4-amine]

IC50: ≤ 1 µM
SMILES: CCc1cc(Nc2ccc(C(C)(C)O)cn2)c2ccc(-c3ncccc3C(F)(F)F)nc2n1 [Compound 112, 2-[6-({2-ethyl-7-[3-(trifluoromethyl)pyridin-2-yl]-1,8-naphthyridin-4-yl}amino)pyridin-3-yl]propan-2-ol]

IC50: ≤ 1 µM
SMILES: CC(C)c1cc(Nc2ccc(C(C)(C)O)cn2)c2ccc(-c3ncccc3C(F)(F)F)nc2n1 [Compound 118, 2-[6-({2-isopropyl-7-[3-(trifluoromethyl)pyridin-2-yl]-1,8-naphthyridin-4-yl}amino)pyridin-3-yl]propan-2-ol]

IC50: ≤ 1 µM
SMILES: COC(C)c1cc(Nc2ccc(C(F)(F)F)cn2)c2ccc(-c3ncccc3C(F)(F)F)nc2n1 (stereo not shown) [Compound 119, 2-(1-methoxyethyl)-7-[3-(trifluoromethyl)pyridin-2-yl]-N-[5-(trifluoromethyl)pyridin-2-yl]-1,8-naphthyridin-4-amine]

IC50: ≤ 1 µM
SMILES: COC(C)c1cc(Nc2ccc(C(C)(C)O)cn2)c2ccc(-c3ncccc3C(F)(F)F)nc2n1 (stereo not shown) [Compound 121, 2-[6-({2-(1-methoxyethyl)-7-[3-(trifluoromethyl)pyridin-2-yl]-1,8-naphthyridin-4-yl}amino)pyridin-3-yl]propan-2-ol]

IC50: ≤ 1 µM
SMILES: FC(F)(F)c1cnc(Nc2ccnc3nc(-c4ncccc4C(F)(F)F)ccc23)nc1 [Compound 132, 7-[3-(trifluoromethyl)pyridin-2-yl]-N-[5-(trifluoromethyl)pyrimidin-2-yl]-1,8-naphthyridin-4-amine]

Further lines, the compound ahead of its results:

SMILES: N#Cc1ccc(Nc2cc(C3CCC3)nc3nc(-c4ncccc4C(F)(F)F)ccc23)nc1 [Compound 100, 6-({2-cyclobutyl-7-[3-(trifluoromethyl)pyridin-2-yl]-1,8-naphthyridin-4-yl}amino)nicotinonitrile]
IC50: ≤ 1 µM

SMILES: FC(F)(F)c1cccnc1-c1ccc2c(Nc3ccc(Cl)cn3)cc(C3CCC3)nc2n1 [Compound 101, N-(5-chloropyridin-2-yl)-2-cyclobutyl-7-[3-(trifluoromethyl)pyridin-2-yl]-1,8-naphthyridin-4-amine]
IC50: ≤ 1 µM

SMILES: CC(C)c1cc(Nc2ccc(C(F)(F)F)cn2)c2ccc(-c3ncccc3C(F)(F)F)nc2n1 [Compound 102, 2-isopropyl-7-[3-(trifluoromethyl)pyridin-2-yl]-N-[5-(trifluoromethyl)pyridin-2-yl]-1,8-naphthyridin-4-amine]
IC50: ≤ 1 µM

SMILES: FC(F)(F)c1ccc(Nc2ccnc3nc(-c4ncccc4C(F)(F)F)ccc23)nc1 [Compound 106, 7-[3-(trifluoromethyl)pyridin-2-yl]-N-[5-(trifluoromethyl)pyridin-2-yl]-1,8-naphthyridin-4-amine]
IC50: ≤ 1 µM

SMILES: FC(F)(F)c1ccc(Nc2ccnc3cc(-c4ncccc4C(F)(F)F)ccc23)nc1 [Compound 109, 7-[3-(trifluoromethyl)pyridin-2-yl]-N-[5-(trifluoromethyl)pyridin-2-yl]quinolin-4-amine]
IC50: ≤ 1 µM

SMILES: CCc1cc(Nc2ccc(C(C)=O)cn2)c2ccc(-c3ncccc3C(F)(F)F)nc2n1 [Compound 111, 1-[6-({2-ethyl-7-[3-(trifluoromethyl)pyridin-2-yl]-1,8-naphthyridin-4-yl}amino)pyridin-3-yl]ethanone]
IC50: ≤ 1 µM

SMILES: FC(F)(F)c1ccc(Nc2ccnc3nc(-c4ncccc4C(F)(F)F)cnc23)nc1 [Compound 113, 3-[3-(trifluoromethyl)pyridin-2-yl]-N-[5-(trifluoromethyl)pyridin-2-yl]pyrido[2,3-b]pyrazin-8-amine]
IC50: ≤ 1 µM

SMILES: CCCc1cc(Nc2ccc(C(F)(F)F)cn2)c2ccc(-c3ncccc3C(F)(F)F)nc2n1 [Compound 114, 2-propyl-7-[3-(trifluoromethyl)pyridin-2-yl]-N-[5-(trifluoromethyl)pyridin-2-yl]-1,8-naphthyridin-4-amine]
IC50: ≤ 1 µM

SMILES: CCCc1cc(Nc2ccc(C(C)=O)cn2)c2ccc(-c3ncccc3C(F)(F)F)nc2n1 [Compound 115, 1-[6-({2-propyl-7-[3-(trifluoromethyl)pyridin-2-yl]-1,8-naphthyridin-4-yl}amino)pyridin-3-yl]ethanone]
IC50: ≤ 1 µM

SMILES: CC(=O)c1ccc(Nc2cc(C(C)C)nc3nc(-c4ncccc4C(F)(F)F)ccc23)nc1 [Compound 116, 1-[6-({2-isopropyl-7-[3-(trifluoromethyl)pyridin-2-yl]-1,8-naphthyridin-4-yl}amino)pyridin-3-yl]ethanone]
IC50: ≤ 1 µM

SMILES: CCCc1cc(Nc2ccc(C(C)(C)O)cn2)c2ccc(-c3ncccc3C(F)(F)F)nc2n1 [Compound 117, 2-[6-({2-propyl-7-[3-(trifluoromethyl)pyridin-2-yl]-1,8-naphthyridin-4-yl}amino)pyridin-3-yl]propan-2-ol]
IC50: ≤ 1 µM

SMILES: COC(C)c1cc(Nc2ccc(C(C)=O)cn2)c2ccc(-c3ncccc3C(F)(F)F)nc2n1 (stereo not shown) [Compound 120, 1-[6-({2-(1-methoxyethyl)-7-[3-(trifluoromethyl)pyridin-2-yl]-1,8-naphthyridin-4-yl}amino)pyridin-3-yl]ethanone]
IC50: ≤ 1 µM

SMILES: CCCc1cc(Nc2ccc(Cl)cn2)c2ccc(-c3ncccc3C(F)(F)F)nc2n1 [Compound 122, N-(5-chloropyridin-2-yl)-2-propyl-7-[3-(trifluoromethyl)pyridin-2-yl]-1,8-naphthyridin-4-amine]
IC50: ≤ 1 µM

SMILES: CCCc1cc(Nc2ccc(S(C)(=O)=O)cn2)c2ccc(-c3ncccc3C(F)(F)F)nc2n1 [Compound 123, N-[5-(methylsulfonyl)pyridin-2-yl]-2-propyl-7-[3-(trifluoromethyl)pyridin-2-yl]-1,8-naphthyridin-4-amine]
IC50: ≤ 1 µM

SMILES: CN1CCCC(c2cc(Nc3ccc(C(F)(F)F)cn3)c3ccc(-c4ncccc4C(F)(F)F)nc3n2)C1 (stereo not shown) [Compound 124, 2-(1-methylpiperidin-3-yl)-7-[3-(trifluoromethyl)pyridin-2-yl]-N-[5-(trifluoromethyl)pyridin-2-yl]-1,8-naphthyridin-4-amine]
IC50: ≤ 1 µM

SMILES: N#Cc1cc(Nc2ccc(C(F)(F)F)cn2)c2ccc(-c3ncccc3C(F)(F)F)nc2n1 [Compound 125, 7-[3-(trifluoromethyl)pyridin-2-yl]-4-{[5-(trifluoromethyl)pyridin-2-yl]amino}-1,8-naphthyridine-2-carbonitrile]
IC50: ≤ 1 µM

SMILES: NC(=O)c1cc(Nc2ccc(C(F)(F)F)cn2)c2ccc(-c3ncccc3C(F)(F)F)nc2n1 [Compound 126, 7-[3-(trifluoromethyl)pyridin-2-yl]-4-{[5-(trifluoromethyl)pyridin-2-yl]amino}-1,8-naphthyridine-2-carboxamide]
IC50: ≤ 1 µM

SMILES: CCCc1cc(Nc2ccc(CC)cn2)c2ccc(-c3ncccc3C(F)(F)F)nc2n1 [Compound 128, N-(5-ethylpyridin-2-yl)-2-propyl-7-[3-(trifluoromethyl)pyridin-2-yl]-1,8-naphthyridin-4-amine]
IC50: ≤ 1 µM

SMILES: FC(F)(F)c1ccc(Nc2cc(N3CCOCC3)nc3nc(-c4ncccc4C(F)(F)F)ccc23)nc1 [Compound 129, 2-morpholin-4-yl-7-[3-(trifluoromethyl)pyridin-2-yl]-N-[5-(trifluoromethyl)pyridin-2-yl]-1,8-naphthyridin-4-amine]
IC50: ≤ 1 µM

SMILES: CC(C)CNc1cc(Nc2ccc(C(F)(F)F)cn2)c2ccc(-c3ncccc3C(F)(F)F)nc2n1 [Compound 130, N~2~-isobutyl-7-[3-(trifluoromethyl)pyridin-2-yl]-N~4~-[5-(trifluoromethyl)pyridin-2-yl]-1,8-naphthyridine-2,4-diamine]
IC50: ≤ 1 µM

SMILES: FC(F)(F)c1cnc(Nc2ccnc3nc(-c4ncccc4C(F)(F)F)ccc23)cn1 [Compound 131, N-[5-(trifluoromethyl)pyrazin-2-yl]-7-[3-(trifluoromethyl)pyridin-2-yl]-1,8-naphthyridin-4-amine]
IC50: ≤ 1 µM

SMILES: CC(=O)c1cc(Nc2ccc(C(F)(F)F)cn2)c2ccc(-c3ncccc3C(F)(F)F)nc2n1 [Compound 133, 1-(7-[3-(trifluoromethyl)pyridin-2-yl]-4-{[5-(trifluoromethyl)pyridin-2-yl]amino}-1,8-naphthyridin-2-yl)ethanone]
IC50: ≤ 1 µM

SMILES: Cc1cccnc1-c1ccc2c(Nc3ccc(C(F)(F)F)cn3)ccnc2n1 [Compound 135, 7-(3-methylpyridin-2-yl)-N-[5-(trifluoromethyl)pyridin-2-yl]-1,8-naphthyridin-4-amine]
IC50: ≤ 1 µM

SMILES: FC(F)(F)c1ccc(Nc2ccnc3nc(-c4ncccc4Cl)ccc23)nc1 [Compound 136, 7-(3-chloropyridin-2-yl)-N-[5-(trifluoromethyl)pyridin-2-yl]-1,8-naphthyridin-4-amine]
IC50: ≤ 1 µM
